ChEMBL document CHEMBL1909046, “DrugMatrix in vitro pharmacology data”

Legend:
[1] = biological target: T1, Cholecystokinin receptor type A (Homo sapiens, UniProt P32238); format: cell membranes, Membrane; settings: 1321-n1; note: in other assays of this panel Not Active means under 50% inhibition at 10 µM
T1 sequence (P32238 whole entry): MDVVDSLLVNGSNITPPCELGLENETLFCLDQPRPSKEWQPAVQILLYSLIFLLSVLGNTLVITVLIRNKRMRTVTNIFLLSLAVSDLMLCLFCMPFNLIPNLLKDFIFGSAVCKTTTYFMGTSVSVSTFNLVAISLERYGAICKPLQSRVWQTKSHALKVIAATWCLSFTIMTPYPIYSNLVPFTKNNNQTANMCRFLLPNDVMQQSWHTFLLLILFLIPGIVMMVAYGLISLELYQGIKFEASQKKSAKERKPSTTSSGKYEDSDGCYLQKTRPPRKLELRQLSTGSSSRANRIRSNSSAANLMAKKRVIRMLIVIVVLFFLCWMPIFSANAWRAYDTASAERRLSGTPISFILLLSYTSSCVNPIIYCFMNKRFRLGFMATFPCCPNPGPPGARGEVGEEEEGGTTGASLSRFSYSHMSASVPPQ

[2] = biological target: T2, Polyunsaturated fatty acid lipoxygenase ALOX15 (Oryctolagus cuniculus, UniProt P12530); assay: biochemical; format: tissue-based, Reticulocytes; settings: reticulocytes;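 note: inhibition of 15-lipoxygenase enzyme activity measured with linoleic acid as the substrate; in other assays of this panel Not Active means under 50% inhibition at 10 µM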
T2 sequence (P12530 whole entry): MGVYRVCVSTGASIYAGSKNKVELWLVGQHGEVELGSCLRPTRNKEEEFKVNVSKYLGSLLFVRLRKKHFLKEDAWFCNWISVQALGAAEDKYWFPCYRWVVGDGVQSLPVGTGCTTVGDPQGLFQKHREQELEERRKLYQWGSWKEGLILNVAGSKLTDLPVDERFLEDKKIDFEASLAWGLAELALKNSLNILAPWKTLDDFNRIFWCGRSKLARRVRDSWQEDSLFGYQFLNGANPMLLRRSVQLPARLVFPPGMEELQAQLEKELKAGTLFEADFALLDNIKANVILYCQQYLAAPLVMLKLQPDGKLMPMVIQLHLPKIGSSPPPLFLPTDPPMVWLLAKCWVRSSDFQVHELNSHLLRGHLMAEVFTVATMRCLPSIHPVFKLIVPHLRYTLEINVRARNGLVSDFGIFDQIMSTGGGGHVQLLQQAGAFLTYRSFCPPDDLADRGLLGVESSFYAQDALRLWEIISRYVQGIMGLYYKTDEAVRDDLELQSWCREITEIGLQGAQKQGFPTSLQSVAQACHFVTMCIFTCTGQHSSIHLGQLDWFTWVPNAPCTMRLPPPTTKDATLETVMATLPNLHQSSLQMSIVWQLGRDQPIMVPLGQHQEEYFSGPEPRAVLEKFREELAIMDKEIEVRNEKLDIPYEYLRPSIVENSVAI

D(1A) dopamine receptor = D(1A) dopamine receptor (Homo sapiens, UniProt P21728); assay: DRUGMATRIX: Dopamine D1 radioligand binding (ligand: [3H] SCH-23390); format: cell membranes, CHO, Membrane; settings: cho; Not Active = under 50% inhibition at 10 µM
Sequence of D(1A) dopamine receptor (P21728 whole entry): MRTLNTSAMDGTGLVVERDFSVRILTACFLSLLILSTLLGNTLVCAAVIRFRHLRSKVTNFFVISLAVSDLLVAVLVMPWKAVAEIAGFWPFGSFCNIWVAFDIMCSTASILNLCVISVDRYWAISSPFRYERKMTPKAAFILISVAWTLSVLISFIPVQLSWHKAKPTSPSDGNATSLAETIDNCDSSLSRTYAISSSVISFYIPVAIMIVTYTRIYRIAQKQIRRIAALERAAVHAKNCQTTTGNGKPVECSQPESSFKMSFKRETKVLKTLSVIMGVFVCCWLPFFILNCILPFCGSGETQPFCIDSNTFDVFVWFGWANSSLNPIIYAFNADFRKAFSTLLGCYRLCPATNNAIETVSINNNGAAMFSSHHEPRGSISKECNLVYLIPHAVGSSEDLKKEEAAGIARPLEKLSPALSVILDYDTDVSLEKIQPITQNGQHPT

[3] = DRUGMATRIX: beta-Lactamase enzyme inhibition (substrate: Nitrocefin); parameters: species or system Bacillus cereus; settings: Not Active = under 50% inhibition at 10 µM
[4] = DRUGMATRIX: Calcium Channel Type L, Dihydropyridine radioligand binding (ligand: [3H] Nitrendipine); format: cell membranes, Rattus norvegicus, Wistar, Cerebral cortex, Membrane; settings: Not Active = under 50% inhibition at 10 µM
[5] = biological target: Vascular endothelial growth factor receptor 1 (Homo sapiens, UniProt P17948); format: cell-based; settings: huvec; note: in other assays of this panel Not Active means under 50% inhibition at 10 µM
Sequence of Vascular endothelial growth factor receptor 1 (P17948 whole entry): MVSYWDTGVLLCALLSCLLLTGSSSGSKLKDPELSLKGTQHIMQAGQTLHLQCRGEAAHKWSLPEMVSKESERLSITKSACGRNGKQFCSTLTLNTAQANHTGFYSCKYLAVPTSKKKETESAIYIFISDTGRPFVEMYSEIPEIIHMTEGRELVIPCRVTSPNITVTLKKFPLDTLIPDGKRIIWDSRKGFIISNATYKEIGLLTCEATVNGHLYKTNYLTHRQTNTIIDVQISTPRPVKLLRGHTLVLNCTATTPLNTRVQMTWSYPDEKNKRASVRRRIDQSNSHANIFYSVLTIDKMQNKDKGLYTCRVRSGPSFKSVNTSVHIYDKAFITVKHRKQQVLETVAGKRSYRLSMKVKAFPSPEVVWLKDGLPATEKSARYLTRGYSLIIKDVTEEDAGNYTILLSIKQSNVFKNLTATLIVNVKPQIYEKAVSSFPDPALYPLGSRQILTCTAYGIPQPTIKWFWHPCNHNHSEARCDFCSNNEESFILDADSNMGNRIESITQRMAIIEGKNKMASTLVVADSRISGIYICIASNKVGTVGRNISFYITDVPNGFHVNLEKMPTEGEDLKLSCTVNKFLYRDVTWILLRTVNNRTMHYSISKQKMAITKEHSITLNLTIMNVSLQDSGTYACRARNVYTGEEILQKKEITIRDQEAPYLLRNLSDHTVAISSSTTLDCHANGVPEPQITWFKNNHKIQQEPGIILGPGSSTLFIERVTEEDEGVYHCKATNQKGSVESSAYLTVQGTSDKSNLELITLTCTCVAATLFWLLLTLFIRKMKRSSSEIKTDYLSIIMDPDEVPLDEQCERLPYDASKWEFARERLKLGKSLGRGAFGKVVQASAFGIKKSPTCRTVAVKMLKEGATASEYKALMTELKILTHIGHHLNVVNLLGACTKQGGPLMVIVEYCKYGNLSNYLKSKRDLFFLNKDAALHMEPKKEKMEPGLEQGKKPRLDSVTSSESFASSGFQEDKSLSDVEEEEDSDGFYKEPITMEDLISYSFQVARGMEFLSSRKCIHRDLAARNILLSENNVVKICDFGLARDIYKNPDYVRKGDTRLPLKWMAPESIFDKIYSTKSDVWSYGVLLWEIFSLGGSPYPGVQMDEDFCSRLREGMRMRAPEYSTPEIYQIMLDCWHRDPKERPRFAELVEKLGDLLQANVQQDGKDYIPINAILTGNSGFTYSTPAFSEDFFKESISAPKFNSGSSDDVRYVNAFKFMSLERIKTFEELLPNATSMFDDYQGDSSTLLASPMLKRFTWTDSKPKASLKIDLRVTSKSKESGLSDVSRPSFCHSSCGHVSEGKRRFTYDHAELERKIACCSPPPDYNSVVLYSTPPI

Adenosine receptor A1 = biological target: T3, Adenosine receptor A1 (Homo sapiens, UniProt P30542); format: cell membranes, CHO, Membrane; settings: cho;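 note: radioligand binding assay at the adenosine A1 receptor, with DPCPX serving as the labelled ligand; in other assays of this panel Not Active means under 50% inhibition at 10 µM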
T3 sequence (P30542 whole entry): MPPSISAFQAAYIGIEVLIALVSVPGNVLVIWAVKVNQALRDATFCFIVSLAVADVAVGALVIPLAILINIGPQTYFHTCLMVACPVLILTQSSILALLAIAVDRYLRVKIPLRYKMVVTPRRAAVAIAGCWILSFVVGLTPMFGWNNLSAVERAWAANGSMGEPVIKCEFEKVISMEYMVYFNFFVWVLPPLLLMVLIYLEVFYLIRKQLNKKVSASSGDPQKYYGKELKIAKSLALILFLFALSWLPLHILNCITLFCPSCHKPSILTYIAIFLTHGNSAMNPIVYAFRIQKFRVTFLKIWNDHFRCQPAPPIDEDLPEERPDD

[6] = biological target: Beta-2 adrenergic receptor (Homo sapiens, UniProt P07550); assay: DRUGMATRIX: Adrenergic beta2 radioligand binding (ligand: [3H] CGP-12177); format: cell membranes, Membrane; settings: cho; Not Active = under 50% inhibition at 10 µM
Sequence of Beta-2 adrenergic receptor (P07550 whole entry): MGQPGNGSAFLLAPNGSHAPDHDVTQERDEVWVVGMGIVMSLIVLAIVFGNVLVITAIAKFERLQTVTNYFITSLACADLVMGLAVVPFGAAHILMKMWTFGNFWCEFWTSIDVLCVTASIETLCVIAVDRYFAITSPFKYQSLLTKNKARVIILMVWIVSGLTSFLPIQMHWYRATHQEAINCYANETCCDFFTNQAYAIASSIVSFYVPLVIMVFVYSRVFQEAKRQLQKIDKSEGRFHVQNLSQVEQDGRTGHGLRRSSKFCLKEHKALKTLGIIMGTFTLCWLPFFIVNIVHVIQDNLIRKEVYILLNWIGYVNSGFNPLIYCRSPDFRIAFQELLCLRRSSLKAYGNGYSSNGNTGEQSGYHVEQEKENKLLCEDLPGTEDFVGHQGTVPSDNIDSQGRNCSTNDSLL

[7] = biological target: Aldo-keto reductase family 1 member B1 (Rattus norvegicus, UniProt P07943); format: tissue-based, Lens of camera-type eye
D(3) dopamine receptor = D(3) dopamine receptor (Homo sapiens, UniProt P35462); assay: DRUGMATRIX: Dopamine D3 radioligand binding (ligand: [3H] Spiperone); format: cell membranes, CHO, Membrane; settings: cho
Sequence of D(3) dopamine receptor (P35462 whole entry): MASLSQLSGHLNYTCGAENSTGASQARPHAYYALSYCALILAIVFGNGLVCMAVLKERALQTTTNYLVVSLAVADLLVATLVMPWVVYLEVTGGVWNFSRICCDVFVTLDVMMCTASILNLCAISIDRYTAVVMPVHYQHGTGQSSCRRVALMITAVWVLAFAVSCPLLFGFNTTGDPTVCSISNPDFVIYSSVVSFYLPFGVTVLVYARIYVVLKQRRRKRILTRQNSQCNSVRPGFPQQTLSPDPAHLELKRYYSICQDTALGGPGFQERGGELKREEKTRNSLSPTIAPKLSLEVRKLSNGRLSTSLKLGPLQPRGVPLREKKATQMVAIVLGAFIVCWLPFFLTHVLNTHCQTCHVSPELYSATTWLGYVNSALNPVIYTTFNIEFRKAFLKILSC

[8] = DRUGMATRIX: Atrial Natriuretic Factor (ANF) radioligand binding (ligand: [125I] ANF (rat)); format: cell membranes, Cavia porcellus, Dunkin-Hartley, Adrenal gland, Membrane; settings: Not Active = under 50% inhibition at 10 µM
Substance-P receptor = Substance-P receptor (Homo sapiens, UniProt P25103); format: cell membranes, CHO, Membrane; settings: cho; note: in other assays of this panel Not Active means under 50% inhibition at 10 µM
Sequence of Substance-P receptor (P25103 whole entry): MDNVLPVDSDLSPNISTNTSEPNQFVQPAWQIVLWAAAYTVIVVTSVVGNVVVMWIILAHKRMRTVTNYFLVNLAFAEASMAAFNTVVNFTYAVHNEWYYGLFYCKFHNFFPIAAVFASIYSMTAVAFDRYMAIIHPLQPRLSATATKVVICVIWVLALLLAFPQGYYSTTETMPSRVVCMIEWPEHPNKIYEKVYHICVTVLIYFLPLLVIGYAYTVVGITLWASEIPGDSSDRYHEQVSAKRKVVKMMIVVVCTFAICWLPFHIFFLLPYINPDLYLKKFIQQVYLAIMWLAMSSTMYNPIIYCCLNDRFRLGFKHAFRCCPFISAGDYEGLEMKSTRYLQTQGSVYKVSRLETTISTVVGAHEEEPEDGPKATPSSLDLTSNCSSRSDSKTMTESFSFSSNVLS

[9] = biological target: C-C chemokine receptor type 5 (Homo sapiens, UniProt P51681); format: cell membranes, Membrane; settings: hek293; note: in other assays of this panel Not Active means under 50% inhibition at 10 µM
Sequence of C-C chemokine receptor type 5 (P51681 whole entry): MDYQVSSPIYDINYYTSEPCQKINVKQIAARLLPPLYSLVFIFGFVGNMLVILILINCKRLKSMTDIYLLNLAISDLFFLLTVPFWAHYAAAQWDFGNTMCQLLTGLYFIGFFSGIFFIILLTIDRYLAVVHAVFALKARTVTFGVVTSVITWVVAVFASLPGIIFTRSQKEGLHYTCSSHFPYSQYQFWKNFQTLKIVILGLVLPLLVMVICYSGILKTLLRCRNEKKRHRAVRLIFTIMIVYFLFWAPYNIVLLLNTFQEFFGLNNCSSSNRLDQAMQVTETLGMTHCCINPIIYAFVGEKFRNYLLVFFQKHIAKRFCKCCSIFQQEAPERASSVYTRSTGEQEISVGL

[10] = DRUGMATRIX: Glutamate, AMPA radioligand binding (ligand: [3H] AMPA); format: cell membranes, Rattus norvegicus, Wistar, Cerebral cortex, Membrane; settings: Not Active = under 50% inhibition at 10 µM
[11] = biological target: Mitogen-activated protein kinase 14 (Homo sapiens, UniProt Q16539); parameters: species or system Escherichia coli
Sequence of Mitogen-activated protein kinase 14 (Q16539 whole entry): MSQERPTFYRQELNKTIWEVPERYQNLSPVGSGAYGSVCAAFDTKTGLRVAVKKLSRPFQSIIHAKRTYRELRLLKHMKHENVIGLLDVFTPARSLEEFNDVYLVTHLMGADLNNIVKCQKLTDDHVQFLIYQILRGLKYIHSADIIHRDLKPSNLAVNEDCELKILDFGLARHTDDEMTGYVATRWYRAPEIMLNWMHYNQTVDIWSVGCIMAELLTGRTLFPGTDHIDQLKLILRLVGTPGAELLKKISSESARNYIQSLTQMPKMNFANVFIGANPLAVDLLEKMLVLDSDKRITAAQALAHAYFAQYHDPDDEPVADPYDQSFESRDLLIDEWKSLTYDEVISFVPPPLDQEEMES

[12] = biological target: 5-hydroxytryptamine receptor 2B (Homo sapiens, UniProt P41595); format: cell membranes, CHO-K1, Membrane; settings: cho-k1; note: in other assays of this panel Not Active means under 50% inhibition at 10 µM
Sequence of 5-hydroxytryptamine receptor 2B (P41595 whole entry): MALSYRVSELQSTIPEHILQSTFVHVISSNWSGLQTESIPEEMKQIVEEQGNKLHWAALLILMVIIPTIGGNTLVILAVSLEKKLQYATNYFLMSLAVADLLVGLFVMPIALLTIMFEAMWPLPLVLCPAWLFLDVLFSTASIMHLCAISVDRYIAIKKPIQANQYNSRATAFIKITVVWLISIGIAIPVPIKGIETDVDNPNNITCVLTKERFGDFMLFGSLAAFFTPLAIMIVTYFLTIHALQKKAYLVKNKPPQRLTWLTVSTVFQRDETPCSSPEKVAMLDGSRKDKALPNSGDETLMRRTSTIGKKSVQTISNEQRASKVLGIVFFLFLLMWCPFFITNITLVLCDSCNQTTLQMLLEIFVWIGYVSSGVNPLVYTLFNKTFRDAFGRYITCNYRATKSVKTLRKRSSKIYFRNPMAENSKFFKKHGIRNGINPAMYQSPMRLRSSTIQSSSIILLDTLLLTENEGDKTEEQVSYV

[13] = biological target: T4, Alpha-2A adrenergic receptor (Homo sapiens, UniProt P08913); format: cell membranes, Sf9, Membrane; settings: sf9; note: in other assays of this panel Not Active means under 50% inhibition at 10 µM
T4 sequence (P08913 whole entry): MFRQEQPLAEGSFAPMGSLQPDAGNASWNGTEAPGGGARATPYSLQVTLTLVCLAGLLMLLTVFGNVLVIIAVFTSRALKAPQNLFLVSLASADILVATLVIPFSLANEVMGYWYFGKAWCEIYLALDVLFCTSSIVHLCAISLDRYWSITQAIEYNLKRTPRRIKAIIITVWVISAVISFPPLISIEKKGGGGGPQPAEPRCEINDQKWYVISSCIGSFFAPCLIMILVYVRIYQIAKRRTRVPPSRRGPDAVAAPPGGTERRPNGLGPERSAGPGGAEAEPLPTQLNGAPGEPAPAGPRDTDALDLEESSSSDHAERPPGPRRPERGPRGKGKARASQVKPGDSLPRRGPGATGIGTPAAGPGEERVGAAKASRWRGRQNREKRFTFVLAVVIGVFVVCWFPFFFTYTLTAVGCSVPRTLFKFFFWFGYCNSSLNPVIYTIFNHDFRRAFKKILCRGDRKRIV

CC[C@H]1OC(=O)[C@H](C)[C@@H](O[C@H]2C[C@@](C)(OC)[C@@H](O)[C@H](C)O2)[C@H](C)[C@@H](O[C@@H]2O[C@H](C)C[C@H](N(C)C)[C@H]2O)[C@](C)(O)C[C@@H](C)/C(=N\OCOCCOC)[C@H](C)[C@@H](O)[C@]1(C)O [ROXITHROMYCIN]
Not Active: IC50 [1] | IC50 [2] | IC50 (D(1A) dopamine receptor) | IC50 [3] | Ki [3] | IC50 [4] | Ki [4] | IC50 [5] | IC50 (Adenosine receptor A1) | IC50 [6] | IC50 [7] | IC50 (D(3) dopamine receptor) | IC50 [8] | Ki [8] | IC50 (Substance-P receptor) | IC50 [9] | IC50 [10] | Ki [10] | IC50 [11] | IC50 [12] | IC50 [13]

Nc1ccc(S(=O)(=O)Nc2ccnn2-c2ccccc2)cc1 [SULFAPHENAZOLE]
Not Active: IC50 [1] | IC50 [2] | IC50 (D(1A) dopamine receptor) | IC50 [3] | Ki [3] | IC50 [4] | Ki [4] | IC50 [5] | IC50 (Adenosine receptor A1) | IC50 [6] | IC50 [7] | IC50 (D(3) dopamine receptor) | IC50 [8] | Ki [8] | IC50 (Substance-P receptor) | IC50 [9] | IC50 [10] | Ki [10] | IC50 [11] | IC50 [12] | IC50 [13]

CCOC(=O)[C@H](CCc1ccccc1)N[C@@H](C)C(=O)N1[C@H](C(=O)O)C[C@@H]2CCC[C@@H]21
Not Active: IC50 [1] | IC50 [2] | IC50 (D(1A) dopamine receptor) | IC50 [3] | Ki [3] | IC50 [4] | Ki [4] | IC50 [5] | IC50 (Adenosine receptor A1) | IC50 [6] | IC50 [7] | IC50 (D(3) dopamine receptor) | IC50 [8] | Ki [8] | IC50 (Substance-P receptor) | IC50 [9] | IC50 [10] | Ki [10] | IC50 [11] | IC50 [12] | IC50 [13]

NCCCC[C@H](N[C@@H](CCc1ccccc1)C(=O)O)C(=O)N1CCC[C@H]1C(=O)O [LISINOPRIL ANHYDROUS]
Not Active: IC50 [1] | IC50 [2] | IC50 (D(1A) dopamine receptor) | IC50 [3] | Ki [3] | IC50 [4] | Ki [4] | IC50 [5] | IC50 (Adenosine receptor A1) | IC50 [6] | IC50 [7] | IC50 (D(3) dopamine receptor) | IC50 [8] | Ki [8] | IC50 (Substance-P receptor) | IC50 [9] | IC50 [10] | Ki [10] | IC50 [11] | IC50 [12] | IC50 [13]

Cc1ccc(C(=O)C(C)CN2CCCCC2)cc1 (stereo not given) [TOLPERISONE]
Not Active: IC50 [1] | IC50 [2] | IC50 (D(1A) dopamine receptor) | IC50 [3] | Ki [3] | IC50 [4] | Ki [4] | IC50 [5] | IC50 (Adenosine receptor A1) | IC50 [6] | IC50 [7] | IC50 (D(3) dopamine receptor) | IC50 [8] | Ki [8] | IC50 (Substance-P receptor) | IC50 [9] | IC50 [10] | Ki [10] | IC50 [11] | IC50 [12] | IC50 [13]
